The results in this text go back to US20200323888A1, “INHIBITORS” (VESTLANDETS INNOVASJONSSELSKAP AS, priority 2017, published 2020).

pIC50: −log10 of the molar value. Square brackets hold non-standard residues; d marks the D form. Ends that are not written are not given here. Nle = CCCC[C@H](N)C(=O)O; CoA = coenzyme A

One assay addresses T1, NatA (Homo sapiens, UniProt P41227).
T1 construct: endogenous in cells
T1 sequence (P41227 1-235): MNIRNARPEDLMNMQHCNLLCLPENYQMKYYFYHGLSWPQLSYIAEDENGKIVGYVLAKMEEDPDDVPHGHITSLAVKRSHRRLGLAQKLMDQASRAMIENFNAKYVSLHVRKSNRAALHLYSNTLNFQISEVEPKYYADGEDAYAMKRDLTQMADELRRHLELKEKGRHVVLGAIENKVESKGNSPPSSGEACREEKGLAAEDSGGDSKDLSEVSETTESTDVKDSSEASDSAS
T1 sequence (Q9BXJ9 1-866 partner): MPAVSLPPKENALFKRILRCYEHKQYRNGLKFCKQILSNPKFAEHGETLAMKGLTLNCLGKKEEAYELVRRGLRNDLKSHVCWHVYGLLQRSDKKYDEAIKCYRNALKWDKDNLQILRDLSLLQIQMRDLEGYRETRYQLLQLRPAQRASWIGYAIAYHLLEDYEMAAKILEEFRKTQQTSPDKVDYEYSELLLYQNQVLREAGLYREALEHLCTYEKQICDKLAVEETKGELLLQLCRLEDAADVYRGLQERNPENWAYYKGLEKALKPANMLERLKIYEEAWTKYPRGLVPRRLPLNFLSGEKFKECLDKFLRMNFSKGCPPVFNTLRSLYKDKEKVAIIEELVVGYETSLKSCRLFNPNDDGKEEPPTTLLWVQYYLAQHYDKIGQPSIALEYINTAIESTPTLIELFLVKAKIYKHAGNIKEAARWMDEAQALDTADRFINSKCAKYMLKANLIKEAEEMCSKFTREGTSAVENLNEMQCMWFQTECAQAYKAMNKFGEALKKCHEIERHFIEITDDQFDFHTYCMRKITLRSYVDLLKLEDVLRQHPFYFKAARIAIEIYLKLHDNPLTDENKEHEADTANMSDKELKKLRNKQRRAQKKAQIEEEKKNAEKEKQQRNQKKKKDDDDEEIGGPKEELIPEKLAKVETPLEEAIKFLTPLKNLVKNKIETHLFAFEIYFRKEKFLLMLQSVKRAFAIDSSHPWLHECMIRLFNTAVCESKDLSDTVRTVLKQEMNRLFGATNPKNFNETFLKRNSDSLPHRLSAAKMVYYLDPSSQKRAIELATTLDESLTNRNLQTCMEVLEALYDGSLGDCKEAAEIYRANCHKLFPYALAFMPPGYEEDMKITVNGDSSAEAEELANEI
The assay is described as follows: Nt-acetylation inhibitor assay, immunoprecipitated NatA complex, HPLC quantification. The assay is classed as biochemical. The following applies: inhibitors tested against NatA; all compounds with C-terminal amide. The protocol: The IC50 values for these compounds were tested as described in Foyn H, et al. (2013) “Design, Synthesis, and Kinetic Characterization of Protein N-Terminal Acetyltransferase Inhibitors”. ACS Chem Biol 8:1121-1127; and Foyn H, et al. (2017) “DTNB-Based quantification of in vitro enzymatic N-terminal acetyltransferase activity”, Methods Mol. Biol. 1574:9-15. Briefly, a colorimetric acetylation assay, 5,5′-dithiobis-(2-nitrobenzoic acid) (DTNB) assay was used to measure the catalytic activity of NATs after incubation with NAT inhibitors. In the DTNB assay, thiols present in the enzymatic product, CoA, cleaves DTNB and produces 2-nitro-5-thiobenzoate (NTB-), which absorbs light with a wavelength of 412 nm. NTB- forms in a 1:1 molar ratio to the thiol groups present in the sample. Therefore, NTB- was quantified by measuring the absorbance at 412 nm and indirectly measures peptide Nt-acetylation. Recombinant purified NAT enzyme was mixed with different substrate peptides (300 uM, custom-made) and Ac-CoA (300 uM) in acetylation buffer (50 mM Tris/HEPES pH 8.5-7.4, 100 mM NaCl, 10% glycerol and 0.2 mM EDTA) and with inhibitor concentration (0-500 uM). After 30 min-60 min incubation at 37° C., the enzyme activity was quenched with quenching buffer (3.2 M guanidinium-HCl, 100 mM sodium phosphate dibasic pH 6.8). Triplicates were run for all positive samples, while negative controls were duplicated. As a negative control, reactions without enzyme were incubated at 37° C. before the reaction was quenched and added enzyme. In order to measure CoA production, 2 mM DTNB (dissolved in 100 mM sodium phosphate dibasic pH 6.8 and 10 mM EDTA) was added to the quenched reaction and the absorbance at 412 nm was measured with a spectrophotometer (Epoc). Background absorbance (determined in negative controls) was subtracted from the absorbance determined in each individual reaction. Thiophenolate production was quantified assuming ε=13.7×103 M−1 cm−1. […] A similar Nt-acetylation reaction was performed as previously described and the enzymatic activity was quenched with a final concentration of 1% TFA and analyzed by HPLC (Evjenth R, Van Damme P, Gevaert K, Arnesen T (2013) HPLC-based Quantification of in vitro N-terminal Acetylation. Methods Mol Biol 981:95-102.).
In order to ensure selectivity towards NatA, the CoA-Ac-SSNIeP (SEQ ID NO: 4) was tested against other NATs. Using the Cheng-Prusoff equation for competitive inhibitors, the dissociation constant, Ki, was calculated from IC50 values and [S]/Km ratios for all the NATs.

The test system of a further assay is zebrafish embryos. The assay is described as follows: Phenotype after injection into zebrafish embryos. Type of assay: in vivo. The following applies: injected into zebrafish embryos; compared with reference inhibitor. The text has this:
A norleucine (Nle) residue was therefore tried in place of methionine in order to try to circumvent the synthesis problem.

As usually defined, the pIC50 is −log10 of the IC50, conventionally taken in molar units. Low values mean a large IC50, high ones a small IC50. For `CCCC[C@H](NC(=O)[C@H](CO)NC(=O)[C@@H]1CCCN1C(=O)CSCCNC(=O)CCNC(=O)C(O)C(C)(C)COP(=O)(O)OP(=O)(O)OCC1OC(n2cnc3c(N)ncnc32)C(O)C1OP(=O)(O)O)C(=O)N1CCC[C@H]1C(N)=O` (some centres unmarked) [CoA-Ac-PS(Nle)P], the pIC50 on NatA was less than 3.00. For the compound “CoA-Ac-SSNlePK-folic acid: CoA-Ac-SS(Nle)PK (SEQ ID NO: 23) carrying folic acid as targeting moiety ({CoA-Ac}-SS[Nle]PK; not fully specified (C-terminus); also: folic acid conjugate as targeting moiety, site not given here)”, the phenotype in zebrafish entry in the assay on zebrafish embryos is “comparable phenotypes as CoA-Ac-SSNleP-NH2”.
